Test results reported in PMC11133327, “Discovery of potent antimycobacterial agents targeting lumazine synthase (RibH) of Mycobacterium tuberculosis” (Scientific Reports, 2024).

Columns and labels:
Format in all cases: binding
lumazine synthase (RibH) [1] = target: T1, lumazine synthase (RibH) (Mycobacterium tuberculosis, UniProt P9WHE9); experiment: […]; also riboflavin displacement ([…] at […])
lumazine synthase (RibH) [2] = target: T1, lumazine synthase (RibH); experiment: […]; also riboflavin displacement ([…] at […]); remark: listed apart in the source
lumazine synthase (RibH) [3] = target: T1, lumazine synthase (RibH); experiment: […]; also riboflavin displacement ([…] at […]); remark: listed apart in the source
lumazine synthase (RibH) [4] = target: T1, lumazine synthase (RibH); experiment: biochemical

T1 sequence (P9WHE9 whole entry): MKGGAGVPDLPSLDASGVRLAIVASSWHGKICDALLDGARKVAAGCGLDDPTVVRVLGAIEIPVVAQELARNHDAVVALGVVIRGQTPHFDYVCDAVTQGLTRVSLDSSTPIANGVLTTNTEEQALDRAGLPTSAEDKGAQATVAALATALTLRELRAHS

O=C1NC(=Nc2ccccc2)SC1=Cc1ccc([N+](=O)[O-])o1 [A10, 5-((5-nitrofuran-2-yl)methylene)-2-(phenylimino)thiazolidin-4-one]
Kd (lumazine synthase (RibH) [1]): 69 nM

O=C1NC(=Nc2ccc(Cl)cc2)SC1=Cc1ccc([N+](=O)[O-])o1 [A39, 2-((4-chlorophenyl)imino)-5-((5-nitrofuran-2-yl)methylene)thiazolidin-4-one]
Kd (lumazine synthase (RibH) [2]): 2.3 nM

Cc1ccc(N=C2NC(=O)C(=Cc3ccc([N+](=O)[O-])o3)S2)cc1 [A52, 5-((5-nitrofuran-2-yl)methylene)-2-(p-tolylimino)thiazolidin-4-one]
Kd (lumazine synthase (RibH) [3]): 48 nM

Cc1cc2nc3c(=O)[nH]c(=O)nc-3n(C[C@H](O)[C@H](O)[C@H](O)CO)c2cc1C [riboflavin]
Kd (lumazine synthase (RibH) [4]): 86 nM
